# Test results as given in patent publication US9340590B2 (priority 2011, dated 2016).
# Read-outs that look alike come from different tables or passages of the source. Positions of bridges follow the written chain, without caps; N, C: chain ends. Non-standard residues stand in square brackets, D forms with d. Residues, ends and D or L forms follow the SMILES beside them. Phe(4-COOH) = N[C@@H](Cc1ccc(C(=O)O)cc1)C(=O)O; Lys(Me2) = CN(C)CCCC[C@H](N)C(=O)O; 2Pal = N[C@@H](Cc1ccccn1)C(=O)O; Phg = N[C@H](C(=O)O)c1ccccc1
# Assays:
# Experiment in all cases: cell-based
# [1] = biological target: hNav1.3 (Homo sapiens, UniProt Q9NY46); conditions: IonWorks Quattro, Use; read-out: IWQ Use Nav1.3
# [2] = biological target: hNav1.7 (Homo sapiens, UniProt Q15858); assay type: cell-based
# [3] = biological target: hNav1.5 (Homo sapiens, UniProt Q14524); conditions: IonWorks Quattro, Use; read-out: IWQ Use Nav1.5
# [4] = IonWorks Quattro, Use, read-out: IWQ Use Nav1.7
# Sequence of hNav1.5 (Q14524 whole entry, looked up): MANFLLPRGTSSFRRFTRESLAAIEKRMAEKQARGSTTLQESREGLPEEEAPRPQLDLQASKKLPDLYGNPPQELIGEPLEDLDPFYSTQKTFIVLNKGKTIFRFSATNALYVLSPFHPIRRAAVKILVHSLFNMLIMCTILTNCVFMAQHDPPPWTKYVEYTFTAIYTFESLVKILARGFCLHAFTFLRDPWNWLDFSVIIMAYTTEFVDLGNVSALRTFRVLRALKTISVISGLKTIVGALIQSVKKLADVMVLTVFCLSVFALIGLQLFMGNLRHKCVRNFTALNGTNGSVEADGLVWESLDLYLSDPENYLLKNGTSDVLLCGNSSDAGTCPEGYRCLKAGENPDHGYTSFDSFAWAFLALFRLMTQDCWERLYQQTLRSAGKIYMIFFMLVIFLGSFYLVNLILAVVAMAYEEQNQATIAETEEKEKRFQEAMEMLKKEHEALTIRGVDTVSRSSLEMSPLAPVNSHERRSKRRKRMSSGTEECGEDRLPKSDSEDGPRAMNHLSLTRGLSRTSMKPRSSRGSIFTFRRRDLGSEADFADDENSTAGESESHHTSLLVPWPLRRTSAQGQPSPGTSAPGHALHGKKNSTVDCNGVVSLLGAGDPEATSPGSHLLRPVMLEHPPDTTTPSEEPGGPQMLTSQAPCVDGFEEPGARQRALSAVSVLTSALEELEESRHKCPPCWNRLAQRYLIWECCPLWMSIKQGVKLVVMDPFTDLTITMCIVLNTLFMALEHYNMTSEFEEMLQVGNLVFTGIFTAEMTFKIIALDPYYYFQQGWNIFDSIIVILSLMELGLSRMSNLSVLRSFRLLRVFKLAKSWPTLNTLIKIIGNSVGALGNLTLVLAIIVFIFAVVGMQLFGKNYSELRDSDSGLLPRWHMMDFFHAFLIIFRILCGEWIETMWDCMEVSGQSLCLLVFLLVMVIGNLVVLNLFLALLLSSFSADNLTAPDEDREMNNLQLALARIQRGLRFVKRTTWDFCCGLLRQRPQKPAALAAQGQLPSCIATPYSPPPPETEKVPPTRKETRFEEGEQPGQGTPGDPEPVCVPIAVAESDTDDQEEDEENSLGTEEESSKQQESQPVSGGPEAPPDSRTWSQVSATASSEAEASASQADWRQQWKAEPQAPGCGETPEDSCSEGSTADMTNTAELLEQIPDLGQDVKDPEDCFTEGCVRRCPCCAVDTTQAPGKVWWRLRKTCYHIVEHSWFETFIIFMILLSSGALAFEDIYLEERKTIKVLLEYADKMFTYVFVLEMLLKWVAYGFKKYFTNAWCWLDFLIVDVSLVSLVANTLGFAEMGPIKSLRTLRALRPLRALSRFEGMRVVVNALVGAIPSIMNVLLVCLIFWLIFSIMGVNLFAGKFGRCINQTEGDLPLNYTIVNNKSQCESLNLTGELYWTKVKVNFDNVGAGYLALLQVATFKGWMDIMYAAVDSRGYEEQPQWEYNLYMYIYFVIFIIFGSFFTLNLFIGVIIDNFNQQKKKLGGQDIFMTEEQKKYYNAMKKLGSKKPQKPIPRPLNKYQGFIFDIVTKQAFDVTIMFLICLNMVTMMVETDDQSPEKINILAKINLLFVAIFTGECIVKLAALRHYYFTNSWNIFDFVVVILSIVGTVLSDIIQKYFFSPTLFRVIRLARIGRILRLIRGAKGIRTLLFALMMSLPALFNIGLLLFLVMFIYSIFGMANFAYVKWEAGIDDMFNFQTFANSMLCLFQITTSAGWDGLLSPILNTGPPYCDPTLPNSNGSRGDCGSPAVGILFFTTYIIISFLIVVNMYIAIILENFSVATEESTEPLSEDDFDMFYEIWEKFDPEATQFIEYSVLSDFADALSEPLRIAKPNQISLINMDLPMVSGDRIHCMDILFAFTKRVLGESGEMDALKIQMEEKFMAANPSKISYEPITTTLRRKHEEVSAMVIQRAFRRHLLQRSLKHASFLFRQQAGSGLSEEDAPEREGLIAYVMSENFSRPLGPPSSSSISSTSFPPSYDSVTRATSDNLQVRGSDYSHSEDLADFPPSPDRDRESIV
# Sequence of hNav1.3 (Q9NY46 whole entry, looked up): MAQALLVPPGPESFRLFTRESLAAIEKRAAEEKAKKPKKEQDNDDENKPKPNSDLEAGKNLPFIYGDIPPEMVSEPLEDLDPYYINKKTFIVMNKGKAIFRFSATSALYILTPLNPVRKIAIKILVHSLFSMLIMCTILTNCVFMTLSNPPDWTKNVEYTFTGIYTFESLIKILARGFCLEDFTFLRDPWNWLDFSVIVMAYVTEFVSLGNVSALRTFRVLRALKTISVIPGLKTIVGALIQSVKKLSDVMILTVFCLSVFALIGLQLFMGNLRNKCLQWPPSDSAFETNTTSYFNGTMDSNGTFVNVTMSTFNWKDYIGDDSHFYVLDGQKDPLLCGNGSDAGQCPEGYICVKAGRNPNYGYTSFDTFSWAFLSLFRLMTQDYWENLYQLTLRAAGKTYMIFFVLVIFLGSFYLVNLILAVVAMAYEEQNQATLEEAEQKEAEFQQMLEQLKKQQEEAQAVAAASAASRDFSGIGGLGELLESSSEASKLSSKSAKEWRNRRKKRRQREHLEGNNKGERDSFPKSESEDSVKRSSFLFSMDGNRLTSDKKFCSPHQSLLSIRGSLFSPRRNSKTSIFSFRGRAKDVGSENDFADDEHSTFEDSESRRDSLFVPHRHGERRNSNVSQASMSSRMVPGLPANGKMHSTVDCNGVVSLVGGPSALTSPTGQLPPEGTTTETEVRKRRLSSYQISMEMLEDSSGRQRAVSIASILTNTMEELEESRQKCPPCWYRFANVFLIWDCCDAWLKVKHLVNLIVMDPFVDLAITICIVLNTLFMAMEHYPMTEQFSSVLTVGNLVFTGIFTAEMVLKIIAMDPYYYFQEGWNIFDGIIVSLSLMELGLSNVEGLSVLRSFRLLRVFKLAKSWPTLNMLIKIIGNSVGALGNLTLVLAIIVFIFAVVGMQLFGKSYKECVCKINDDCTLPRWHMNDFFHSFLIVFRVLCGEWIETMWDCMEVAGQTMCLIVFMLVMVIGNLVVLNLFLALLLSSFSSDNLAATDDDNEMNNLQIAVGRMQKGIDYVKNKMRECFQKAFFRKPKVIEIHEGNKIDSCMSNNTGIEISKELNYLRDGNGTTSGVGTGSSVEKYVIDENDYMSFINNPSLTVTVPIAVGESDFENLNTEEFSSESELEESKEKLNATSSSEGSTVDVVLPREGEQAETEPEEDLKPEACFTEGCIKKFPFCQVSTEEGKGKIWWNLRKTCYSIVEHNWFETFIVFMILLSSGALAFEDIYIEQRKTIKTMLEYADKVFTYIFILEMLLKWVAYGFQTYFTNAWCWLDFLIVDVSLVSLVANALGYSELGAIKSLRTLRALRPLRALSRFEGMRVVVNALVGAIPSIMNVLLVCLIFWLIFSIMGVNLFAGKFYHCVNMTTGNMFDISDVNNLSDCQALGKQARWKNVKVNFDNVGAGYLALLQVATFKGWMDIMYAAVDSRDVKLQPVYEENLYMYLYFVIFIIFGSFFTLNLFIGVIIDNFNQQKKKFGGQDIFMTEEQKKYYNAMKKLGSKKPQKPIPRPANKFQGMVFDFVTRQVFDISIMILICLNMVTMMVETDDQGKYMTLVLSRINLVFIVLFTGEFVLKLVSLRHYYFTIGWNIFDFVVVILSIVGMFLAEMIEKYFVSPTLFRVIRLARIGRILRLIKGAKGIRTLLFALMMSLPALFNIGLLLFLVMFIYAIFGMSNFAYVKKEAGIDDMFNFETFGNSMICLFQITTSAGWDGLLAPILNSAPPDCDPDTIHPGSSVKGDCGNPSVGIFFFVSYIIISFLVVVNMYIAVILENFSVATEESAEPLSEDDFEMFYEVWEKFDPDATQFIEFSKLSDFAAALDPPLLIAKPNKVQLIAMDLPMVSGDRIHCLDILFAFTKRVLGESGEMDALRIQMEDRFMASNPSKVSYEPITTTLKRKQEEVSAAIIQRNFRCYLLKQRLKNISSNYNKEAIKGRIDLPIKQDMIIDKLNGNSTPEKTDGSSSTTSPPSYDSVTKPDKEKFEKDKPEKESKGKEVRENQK
SMILES,IC50 [1],"IC50 [2, 4]",IC50 [3],IC50 [2]
"CC[C@H](C)[C@@H]1NC(=O)[C@@H]2CSSC[C@@H]3NC(=O)[C@H]([C@@H](C)O)NC(=O)[C@H](CC(C)C)NC(=O)[C@H](CC(N)=O)NC(=O)[C@@H]4CCCN4C(=O)[C@H](CCCNC(=N)N)NC(=O)[C@H](CSSC[C@H](NC(=O)[C@@H](N)CC(=O)O)C(=O)N[C@@H](CC(C)C)C(=O)NCC(=O)N[C@@H](Cc4ccccc4)C(=O)N[C@@H](CCSC)C(=O)N[C@@H](CCCNC(=N)N)C(=O)N[C@@H](CCCCN)C(=O)N2)NC(=O)[C@H](CSSC[C@@H](C(=O)N[C@@H](CCCCN)C(=O)N[C@@H](Cc2ccc(O)cc2)C(=O)N[C@H](C(=O)N[C@@H](Cc2ccccc2)C(N)=O)C(C)C)NC(=O)[C@H](Cc2c[nH]c4ccccc24)NC(=O)[C@H](CCCCN)NC(=O)[C@H](Cc2c[nH]cn2)NC(=O)[C@H]([C@@H](C)O)NC(=O)[C@H](CCCNC(=N)N)NC(=O)[C@H](CO)NC3=O)NC(=O)[C@H](CCCCN)NC(=O)[C@H](CC(=O)O)NC(=O)[C@H](CC(N)=O)NC(=O)[C@H](CC(=O)O)NC(=O)[C@@H]2CCCN2C1=O [compound 329] (H-DCLGFMRKCIPDNDKCCRPNLTCSRTHKWCKYVF-NH2; disulfide 2-17, 9-23, 16-30)",80 nM,120 nM,4.59 µM,
"CC[C@H](C)[C@@H]1NC(=O)[C@@H]2CSSC[C@@H]3NC(=O)[C@H](c4ccccc4)NC(=O)[C@H](CC(C)C)NC(=O)[C@H](CC(N)=O)NC(=O)[C@@H]4CCCN4C(=O)[C@H](CCCNC(=N)N)NC(=O)[C@H](CSSC[C@H](NC(=O)[C@@H](N)CC(=O)O)C(=O)N[C@@H](CC(C)C)C(=O)NCC(=O)N[C@@H](Cc4ccccc4)C(=O)N[C@@H](CCSC)C(=O)N[C@@H](CCCNC(=N)N)C(=O)N[C@@H](CCCCN)C(=O)N2)NC(=O)[C@H](CSSC[C@@H](C(=O)N[C@@H](CCCCN)C(=O)N[C@@H](Cc2ccc(O)cc2)C(=O)N[C@H](C(=O)N[C@@H](Cc2ccccc2)C(N)=O)C(C)C)NC(=O)[C@H](Cc2c[nH]c4ccccc24)NC(=O)[C@H](CCCCN)NC(=O)[C@H](Cc2c[nH]cn2)NC(=O)[C@H]([C@@H](C)O)NC(=O)[C@H](CCCNC(=N)N)NC(=O)[C@H](CO)NC3=O)NC(=O)[C@H](CCCCN)NC(=O)[C@H](CC(=O)O)NC(=O)[C@H](CC(N)=O)NC(=O)[C@H](CC(=O)O)NC(=O)[C@@H]2CCCN2C1=O [compound 330] (H-DCLGFMRKCIPDNDKCCRPNL[Phg]CSRTHKWCKYVF-NH2; disulfide 2-17, 9-23, 16-30)",70 nM,180 nM,4.69 µM,
"CC[C@H](C)[C@@H]1NC(=O)[C@@H]2CSSC[C@@H]3NC(=O)[C@H](Cc4ccc(O)cc4)NC(=O)[C@H](CC(C)C)NC(=O)[C@H](CC(N)=O)NC(=O)[C@@H]4CCCN4C(=O)[C@H](CCCNC(=N)N)NC(=O)[C@H](CSSC[C@H](NC(=O)[C@@H](N)CC(=O)O)C(=O)N[C@@H](CC(C)C)C(=O)NCC(=O)N[C@@H](Cc4ccccc4)C(=O)N[C@@H](CCSC)C(=O)N[C@@H](CCCNC(=N)N)C(=O)N[C@@H](CCCCN)C(=O)N2)NC(=O)[C@H](CSSC[C@@H](C(=O)N[C@@H](CCCCN)C(=O)N[C@@H](Cc2ccc(O)cc2)C(=O)N[C@H](C(=O)N[C@@H](Cc2ccccc2)C(N)=O)C(C)C)NC(=O)[C@H](Cc2c[nH]c4ccccc24)NC(=O)[C@H](CCCCN)NC(=O)[C@H](Cc2c[nH]cn2)NC(=O)[C@H]([C@@H](C)O)NC(=O)[C@H](CCCNC(=N)N)NC(=O)[C@H](CO)NC3=O)NC(=O)[C@H](CCCCN)NC(=O)[C@H](CC(=O)O)NC(=O)[C@H](CC(N)=O)NC(=O)[C@H](CC(=O)O)NC(=O)[C@@H]2CCCN2C1=O [compound 331] (H-DCLGFMRKCIPDNDKCCRPNLYCSRTHKWCKYVF-NH2; disulfide 2-17, 9-23, 16-30)",500 nM,560 nM,4.26 µM,
"CC[C@H](C)[C@@H]1NC(=O)[C@@H]2CSSC[C@@H]3NC(=O)[C@H](CCSC)NC(=O)[C@H](CC(C)C)NC(=O)[C@H](CC(N)=O)NC(=O)[C@@H]4CCCN4C(=O)[C@H](CCCNC(=N)N)NC(=O)[C@H](CSSC[C@H](NC(=O)[C@@H](N)CC(=O)O)C(=O)N[C@@H](CC(C)C)C(=O)NCC(=O)N[C@@H](Cc4ccccc4)C(=O)N[C@@H](CCSC)C(=O)N[C@@H](CCCNC(=N)N)C(=O)N[C@@H](CCCCN)C(=O)N2)NC(=O)[C@H](CSSC[C@@H](C(=O)N[C@@H](CCCCN)C(=O)N[C@@H](Cc2ccc(O)cc2)C(=O)N[C@H](C(=O)N[C@@H](Cc2ccccc2)C(N)=O)C(C)C)NC(=O)[C@H](Cc2c[nH]c4ccccc24)NC(=O)[C@H](CCCCN)NC(=O)[C@H](Cc2c[nH]cn2)NC(=O)[C@H]([C@@H](C)O)NC(=O)[C@H](CCCNC(=N)N)NC(=O)[C@H](CO)NC3=O)NC(=O)[C@H](CCCCN)NC(=O)[C@H](CC(=O)O)NC(=O)[C@H](CC(N)=O)NC(=O)[C@H](CC(=O)O)NC(=O)[C@@H]2CCCN2C1=O [compound 332] (H-DCLGFMRKCIPDNDKCCRPNLMCSRTHKWCKYVF-NH2; disulfide 2-17, 9-23, 16-30)",80 nM,90 nM,4.61 µM,
"CC[C@H](C)[C@@H]1NC(=O)[C@@H]2CSSC[C@@H]3NC(=O)[C@H](Cc4ccc(C(=O)O)cc4)NC(=O)[C@H](CC(C)C)NC(=O)[C@H](CC(N)=O)NC(=O)[C@@H]4CCCN4C(=O)[C@H](CCCNC(=N)N)NC(=O)[C@H](CSSC[C@H](NC(=O)[C@@H](N)CC(=O)O)C(=O)N[C@@H](CC(C)C)C(=O)NCC(=O)N[C@@H](Cc4ccccc4)C(=O)N[C@@H](CCSC)C(=O)N[C@@H](CCCNC(=N)N)C(=O)N[C@@H](CCCCN)C(=O)N2)NC(=O)[C@H](CSSC[C@@H](C(=O)N[C@@H](CCCCN)C(=O)N[C@@H](Cc2ccc(O)cc2)C(=O)N[C@H](C(=O)N[C@@H](Cc2ccccc2)C(N)=O)C(C)C)NC(=O)[C@H](Cc2c[nH]c4ccccc24)NC(=O)[C@H](CCCCN)NC(=O)[C@H](Cc2c[nH]cn2)NC(=O)[C@H]([C@@H](C)O)NC(=O)[C@H](CCCNC(=N)N)NC(=O)[C@H](CO)NC3=O)NC(=O)[C@H](CCCCN)NC(=O)[C@H](CC(=O)O)NC(=O)[C@H](CC(N)=O)NC(=O)[C@H](CC(=O)O)NC(=O)[C@@H]2CCCN2C1=O [compound 333] (H-DCLGFMRKCIPDNDKCCRPNL[Phe(4-COOH)]CSRTHKWCKYVF-NH2; disulfide 2-17, 9-23, 16-30)",4470 nM,5770 nM,7.5 µM,
"CC[C@H](C)[C@@H]1NC(=O)[C@@H]2CSSC[C@@H]3NC(=O)[C@H](Cc4ccccn4)NC(=O)[C@H](CC(C)C)NC(=O)[C@H](CC(N)=O)NC(=O)[C@@H]4CCCN4C(=O)[C@H](CCCNC(=N)N)NC(=O)[C@H](CSSC[C@H](NC(=O)[C@@H](N)CC(=O)O)C(=O)N[C@@H](CC(C)C)C(=O)NCC(=O)N[C@@H](Cc4ccccc4)C(=O)N[C@@H](CCSC)C(=O)N[C@@H](CCCNC(=N)N)C(=O)N[C@@H](CCCCN)C(=O)N2)NC(=O)[C@H](CSSC[C@@H](C(=O)N[C@@H](CCCCN)C(=O)N[C@@H](Cc2ccc(O)cc2)C(=O)N[C@H](C(=O)N[C@@H](Cc2ccccc2)C(N)=O)C(C)C)NC(=O)[C@H](Cc2c[nH]c4ccccc24)NC(=O)[C@H](CCCCN)NC(=O)[C@H](Cc2c[nH]cn2)NC(=O)[C@H]([C@@H](C)O)NC(=O)[C@H](CCCNC(=N)N)NC(=O)[C@H](CO)NC3=O)NC(=O)[C@H](CCCCN)NC(=O)[C@H](CC(=O)O)NC(=O)[C@H](CC(N)=O)NC(=O)[C@H](CC(=O)O)NC(=O)[C@@H]2CCCN2C1=O [compound 334] (H-DCLGFMRKCIPDNDKCCRPNL[2Pal]CSRTHKWCKYVF-NH2; disulfide 2-17, 9-23, 16-30)",140 nM,330 nM,11 µM,
"CC[C@H](C)[C@@H]1NC(=O)[C@@H]2CSSC[C@@H]3NC(=O)[C@H](C(C)C)NC(=O)[C@H](CC(C)C)NC(=O)[C@H](CC(N)=O)NC(=O)[C@@H]4CCCN4C(=O)[C@H](CCCNC(=N)N)NC(=O)[C@H](CSSC[C@H](NC(=O)[C@@H](N)CC(=O)O)C(=O)N[C@@H](CC(C)C)C(=O)NCC(=O)N[C@@H](Cc4ccccc4)C(=O)N[C@@H](CCSC)C(=O)N[C@@H](CCCNC(=N)N)C(=O)N[C@@H](CCCCN)C(=O)N2)NC(=O)[C@H](CSSC[C@@H](C(=O)N[C@@H](CCCCN)C(=O)N[C@@H](Cc2ccc(O)cc2)C(=O)N[C@H](C(=O)N[C@@H](Cc2ccccc2)C(N)=O)C(C)C)NC(=O)[C@H](Cc2c[nH]c4ccccc24)NC(=O)[C@H](CCCCN)NC(=O)[C@H](Cc2c[nH]cn2)NC(=O)[C@H]([C@@H](C)O)NC(=O)[C@H](CCCCN(C)C)NC(=O)[C@H](CO)NC3=O)NC(=O)[C@H](CCCCN)NC(=O)[C@H](CC(=O)O)NC(=O)[C@H](CC(N)=O)NC(=O)[C@H](CC(=O)O)NC(=O)[C@@H]2CCCN2C1=O [compound 335] (H-DCLGFMRKCIPDNDKCCRPNLVCS[Lys(Me2)]THKWCKYVF-NH2; disulfide 2-17, 9-23, 16-30)",110 nM,310 nM,7.93 µM,
CC[C@H](C)[C@@H]1NC(=O)[C@@H]2CSSC[C@@H]3NC(=O)[C@H](C(C)C)NC(=O)[C@H](CC(C)C)NC(=O)[C@H](CC(N)=O)NC(=O)[C@@H]4CCCN4C(=O)[C@H](CCCNC(=N)N)NC(=O)[C@H](CSSC[C@H](NC(=O)[C@@H](N)CC(=O)O)C(=O)N[C@@H](CC(C)C)C(=O)NCC(=O)N[C@@H](Cc4ccccc4)C(=O)N[C@@H](CCSC)C(=O)N[C@@H](CCCNC(=N)N)C(=O)N[C@@H](CCCCN)C(=O)N2)NC(=O)[C@H](CSSC[C@@H](C(=O)N[C@@H](CCCCN)C(=O)N[C@@H](Cc2ccc(O)cc2)C(=O)N[C@H](C(=O)N[C@@H](Cc2ccccc2)C(N)=O)C(C)C)NC(=O)[C@H](Cc2c[nH]c4ccccc24)NC(=O)[C@H](CCCCN)NC(=O)[C@H](Cc2c[nH]cn2)NC(=O)[C@H]([C@@H](C)O)NC(=O)[C@H](CCCNC(=NC)NC)NC(=O)[C@H](CO)NC3=O)NC(=O)[C@H](CCCCN)NC(=O)[C@H](CC(=O)O)NC(=O)[C@H](CC(N)=O)NC(=O)[C@H](CC(=O)O)NC(=O)[C@@H]2CCCN2C1=O [compound 336],110 nM,,9.22 µM,140 nM
